Here are results for eleven molecules from patent US8557836B2 (priority 2008, dated 2013).

In one experiment the target is full length Udorn AM2 protein (Influenza A virus, UniProt P0DOF5). As to the kind of experiment: cell-based. Format: cell-based, influenza virus A/Udorn/72. As to conditions: 100 μM.
full length Udorn AM2 protein, sequence (P0DOF5 whole entry, looked up): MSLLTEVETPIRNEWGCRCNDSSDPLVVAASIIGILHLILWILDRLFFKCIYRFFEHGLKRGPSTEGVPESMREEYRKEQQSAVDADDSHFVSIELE
With `c1ncc(CN2CCC3(CCCCC3)CC2)[nH]1` [Compound 7, 3-((1H-imidazol-4-yl)methyl)-3-azaspiro[5.5]undecane], the “inhibition of AM2 (in words)” value was “moderate inhibition”.
Regarding `c1c[nH]c(CN2CCC3(CCCCC3)CC2)n1` [Compound 8, 3-((1H-imidazol-2-yl)methyl)-3-azaspiro[5.5]undecane], the “inhibition of AM2 (in words)” value is “moderate inhibition”.

Staying with this experiment, now noted: pH 5.5, read-out: AM2 Remaining Activity After 100 μM inhibition.
Usually remaining activity stands for the activity still measured, relative to the control. With `C1CCC2(CC1)CCN(C1=NCCN1)CC2` [BL-1743, 3-(4,5-dihydro-1H-imidazol-2-yl)-3-azaspiro[5,5]undecane hydroiodide, reference compound], the remaining activity at 100 µM amounted to 25%.
As for `C1CCC2(CC1)CCN(CC1CC1)CC2` [Compound 1, 3-(cyclopropylmethyl)-3-azaspiro[5,5]undecane], the remaining activity at 100 µM was 100%.
Same read-out and setting: for `C1CCC2(CC1)CCN(CC1CCCC1)CC2` [Compound 2, 3-(cyclopentylmethyl)-3-azaspiro[5,5]undecane] the value was 100%; for `c1cc(CN2CCC3(CCCCC3)CC2)cs1` [Compound 3, 3-(thiophen-3-ylmethyl)-3-azaspiro[5,5]undecane], 90%; for `Cn1cc(CN2CCC3(CCCCC3)CC2)cn1` [Compound 4, 3-((1-methyl-1H-pyrazol-4-yl)methyl)-3-azaspiro[5,5]undecane], 100%.
Consider `Cc1cc(CN2CCC3(CCCCC3)CC2)no1` [Compound 5, 3-(3-azaspiro[5,5]undecan-3-ylmethyl)-5-methylisoxazole], for which the remaining activity at 100 µM came to 100%.
Same read-out and setting: for `c1ccc(CN2CCC3(CCCCC3)CC2)nc1` [Compound 6, 3-(pyridin-2-ylmethyl)-3-azaspiro[5,5]undecane] the value was 100%; for `c1ncc(CN2CCC3(CCCCC3)CC2)[nH]1` [Compound 7, 3-((1H-imidazol-4-yl)methyl)-3-azaspiro[5.5]undecane], 70%.
With `c1c[nH]c(CN2CCC3(CCCCC3)CC2)n1` [Compound 8, 3-((1H-imidazol-2-yl)methyl)-3-azaspiro[5.5]undecane], the remaining activity at 100 µM stood at 49%.
For `CC1(C)CCNCC1` [Compound 19, 4,4-dimethylpiperidinium chloride], the remaining activity at 100 µM was found to be 75%.
As for `CCC1(C)CCNCC1` [Compound 20, 4-ethyl-4-methylpiperidinium chloride], the remaining activity at 100 µM is 87%.
